Assay results taken from patent US5070210A, “Novel ketenimines as intermediates for insecticides” (ICI Americas Inc., priority 1990, dated 1991).

Assays:
Format in all cases: in vivo
[1] = system: Housefly [Musca domestica]; assay: Housefly insecticidal test; conditions: μg per 25 female flies; mortality after 48 hours
Description: (§1) The compounds in Tables 1 and 2 above were tested for insecticidal activity using the following testing procedures. LC50 values, based on the results of these tests and calculated according to dosage-mortality curves, are expressed in Table 3.
Housefly [Musca domestica]:
Test compounds were diluted in acetone and aliquots pipetted onto the bottom of aluminum dishes. To ensure even spreading of the chemical on the bottom of the dishes, 1 ml of acetone containing 0.01% peanut oil was also added to each dish. After all solvents had evaporated, the dishes were placed in circular cardboard cages containing 25 female houseflies, 1-2 days old. The cages were covered on the bottom with cellophane and on the top with tulle netting, and each contained a sugar-water saturated cotton plug for maintenance of the flies. Mortality was recorded after 48 hours. Test levels ranged from 100 μg/25 female houseflies downward. The LC-50 value is expressed below in Table 3 under the heading "HF", in terms of μg of the test compound per 25 female flies.

[2] = system: Tobacco Budworm [Heliothis virescens (Fabricius)] eggs; assay: Tobacco budworm egg test; conditions: 2-day old eggs, percent in solution
Description: as §1
Tobacco Budworm [Heliothis virescens (Fabricius)]:
(b). Eggs: Paper towel patches of 2-day old eggs of the tobacco budworm were dipped in acetone solutions of the test compound and placed in petri dishes containing a portion of larval rearing medium. Treated eggs were maintained at 78° F. and mortality was recorded after all control eggs had hatched and the young larvae were feeding on the media. Test concentrations ranged from 0.1% downward. The LC-50 value is expressed below in Table 3 under the heading "TBW-E" in terms of percent of the test compound in the solution.

[3] = system: Cabbage Looper [Trichoplusia ni (Hubner)]; assay: Cabbage looper insecticidal test; conditions: second-instar larvae, percent in solution; 3-5 days
Description: as §1
Cabbage Looper [Trichoplusia ni (Hubner)]:
Test compounds were diluted in a 50-50 acetone-water solution. Cotyledons of hyzini squash (Calabacita abobrinha), approximately 1×1.5 inches, were immersed in the test solutions for 2-3 seconds and placed on a wire screen to dry. The dried leaves were placed in petri dishes containing a moistened piece of filter paper and infested with 5 second-instar cabbage looper larvae. The dishes were placed in a high humidity chamber. Mortality of the larvae was recorded 3-5 days later. Test concentrations ranged from 0.1% downward. The LC-50 value is expressed below in Table 3 under the heading "CL" in terms of percent of the test compound in solution.

Row | Compound | LC50, HF [1] | LC50, TBW, E (TBW-E) [2] | LC50, CL [3]
1 | COc1ccc(OC)c(N=C(OCc2cccc(Oc3ccccc3)c2)C(C)C)c1Cl [Compound 100] | 100 µg | > 0.1% | 0.05%
2 | CC(=O)c1cccc(N=C(OCc2cccc(Oc3ccccc3)c2)C(C)C)c1 [Compound 170] | 37 µg | > 0.1% | 0.1%
3 | CCCCC(=Nc1ccc(F)c(Cl)c1)OCc1cccc(Oc2ccccc2)c1 [Compound 121] | > 100 µg | > 0.1% | 0.1%
4 | Cc1ccc(Cl)cc1N=C(OCc1cccc(Oc2ccccc2)c1)C(C)C [Compound 263] | > 100 µg | > 0.1% | 0.05%
5 | CCSc1ccc(N=C(OCc2cccc(Oc3ccccc3)c2)C(C)C)cc1Cl [Compound 103] | > 100 µg | > 0.1% | 0.015%
6 | CCC(CC)C(=Nc1ccc(Cl)cc1)OCc1cccc(Oc2ccc(F)cc2)c1 [Compound 290] | > 100 µg | > 0.1% | 0.017%
7 | CC(C)C(=Nc1ccc(F)c(Cl)c1)OCc1ccc(OCc2ccc(F)cc2)cc1 [Compound 487] | > 100 µg | > 0.1% | 0.023%
8 | COc1ccc(C)cc1N=C(OCc1cccc(Oc2ccccc2)c1)C(C)C [Compound 150] | 89 µg | > 0.1% | 0.01%
9 | CC(C)C(=Nc1ccc(F)cc1)OCc1cccc(Oc2ccc(F)cc2F)c1 [Compound 206] | 50 µg | > 0.1% | 0.0017%
10 | CC(C)(Cl)C(=Nc1ccc(F)c(Cl)c1)OCc1cccc(Oc2ccc(F)cc2)c1 [Compound 224] | > 100 µg | > 0.1% | 0.001%
11 | CC(C)C(=Nc1ccc2c(c1)OCO2)OCc1cccc(Oc2ccccc2F)c1 [Compound 190] | 7.5 µg | 0.023% | 0.0004%
12 | CC(C)C(=Nc1ccc(C(C)(C)C)cc1)OCc1cccc(Oc2ccccc2)n1 [Compound 496] | > 100 µg | > 0.1% | 0.006%
13 | CCC(=Nc1ccc(F)c(Cl)c1)OCc1cccc(Oc2ccc(F)cc2)c1 [Compound 115] | 10 µg | 0.075% | 0.0012%
14 | CCC(C)C(=Nc1ccc(F)c(Cl)c1)OCc1ccc(F)c(Oc2ccccc2)c1 (stereo not drawn) [Compound 261] | 24 µg | 0.05% | 0.001%
15 | CC(C)(Cl)C(=Nc1ccc(Cl)c2ccccc12)OCc1cccc(Oc2ccccc2)c1 [Compound 111] | > 100 µg | > 0.1% | 0.1%
16 | CC(C)C(=Nc1ccc(Cl)cc1Cl)OCc1cccc(Oc2ccccc2)c1 [Compound 311] | 22 µg | 0.1% | 0.0017%
17 | CC(C)C(=Nc1ccc(F)c(Cl)c1)OCc1ccc(Cl)c(Oc2ccc(F)cc2)c1 [Compound 448] | 16 µg | 0.03% | 0.003%
18 | CC(C)C(=Nc1ccc2c(c1)OCO2)OCc1cccc(Oc2ccccc2)n1 [Compound 467] | 6 µg | 0.04% | 0.003%
19 | Cc1ccc(N=C(OCc2cccc(Oc3ccccc3)c2)C(C)C)cc1C [Compound 158] | 9 µg | 0.1% | 0.003%

Row | Compound | LC50, HF [1] | LC50, TBW, E (TBW-E) [2] | LC50, CL [3]
20 | CCCC(=Nc1ccc(F)c(Cl)c1)OCc1cccc(Oc2ccccc2)c1 [Compound 123] | > 100 µg | > 0.1% | 0.012%
21 | CC(C)C(=Nc1ccc2c(c1)OCO2)OCc1cc(Oc2ccc(F)cc2)ccc1Cl [Compound 274] | > 100 µg | > 0.1% | 0.1%
22 | CC(C)C(=Nc1cccc(C(F)(F)F)c1)OCc1cccc(OCc2ccc(F)cc2)c1 [Compound 489] | > 100 µg | > 0.1% | < 0.1%
23 | CC(C)C(=Nc1ccc(F)c(F)c1)OCc1cccc(Oc2ccc(Br)cc2)c1 [Compound 275] | 21 µg | 0.045% | 0.00012%
24 | CCC(C)C(=Nc1ccc(Cl)cc1)OCc1cccc(Oc2ccccc2)c1 (stereo not drawn) [Compound 26] | > 100 µg | > 0.1% | 0.007%
25 | CC(C)(F)C(=Nc1ccc(F)c(F)c1)OCc1cccc(Oc2ccc(F)cc2)c1 [Compound 318] | 19 µg | > 0.1% | 0.0007%
26 | CCC(C)C(=Nc1ccc(C(C)C)cc1)OCc1cccc(Oc2ccccc2)c1 (stereo not drawn) [Compound 317] | > 100 µg | 0.03% | 0.0045%
27 | Cc1ccc(N=C(OCc2cccc(Oc3ccccc3)c2)C(C)(C)C)cc1C [Compound 167] | > 100 µg | > 0.1% | 0.02%
28 | CC(C)C(=Nc1ccc(F)c(Cl)c1)OCc1cc(F)cc(Oc2ccc(F)cc2)c1 [Compound 327] | > 100 µg | > 0.1% | 0.005%
29 | CC(C)C(=Nc1ccc(Br)c(Br)c1)OCc1cccc(Oc2ccccc2)c1 [Compound 252] | 34 µg | 0.04% | 0.0035%
30 | CC(C)C(=Nc1ccc(C(C)(C)C)cc1)OCc1cccc(Oc2ccc(Cl)cc2)n1 [Compound 497] | > 100 µg | > 0.1% | 0.0075%
31 | CC(C)C(=Nc1ccc(Cl)c(C(F)(F)F)c1)OCc1cccc(Oc2cccc(F)c2)c1 [Compound 195] | > 100 µg | > 0.1% | 0.002%
32 | Cc1cc(N=C(OCc2cccc(Oc3ccccc3)c2)C(C)C)ccc1F [Compound 87] | 5 µg | 0.03% | 0.004%
33 | Cc1ccc(C)c(N=C(OCc2cccc(Oc3ccccc3)c2)C(C)C)c1 [Compound 250] | 38 µg | 0.038% | 0.004%
34 | CC(C)(C)C(=Nc1cccc(Cl)c1)OCc1cccc(Oc2ccccc2)c1 [Compound 12] | > 100 µg | > 0.1% | 0.008%
35 | CC(C)C(=Nc1ccc(F)cc1)OCc1coc(Cc2ccccc2)c1 [Compound 491] | 9 µg | 0.08% | 0.0028%
36 | CC1CC1C(=Nc1ccc(Cl)cc1)OCc1cccc(Oc2ccccc2)c1 (stereo not drawn) [Compound 15] | > 100 µg | > 0.1% | 0.025%
37 | CC(C)C(=Nc1cccc(SC(F)(F)F)c1)OCc1cccc(Oc2ccc(F)cc2)c1 [Compound 272] | > 100 µg | > 0.1% | 0.0024%
